Source: PubChem BioAssay (NCI)
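Step 1: Grow cells in 96-well plates. Step 2: Expose to compound for 48 hours at 5 concentrations. Step 3: Interpolate endpoints linearly; if unreached, use highest concentration. TGI: total growth inhibition.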

What was measured:
Assay in all cases: NCI-60 cell line screen, 48 h
[1] = tested on: SNB-75 CNS
[2] = tested on: HS 578T breast
[3] = tested on: MALME-3M melanoma
[4] = tested on: RXF 393 renal
[5] = tested on: K-562 leukemia
[6] = tested on: BT-549 breast
[7] = tested on: NCI-H23 lung
[8] = tested on: MDA-MB-231 breast
[9] = tested on: OVCAR-8 ovarian
[10] = tested on: MDA-MB-435
[11] = tested on: HCT-116 colon
[12] = tested on: SF-539 CNS
[13] = tested on: SK-MEL-5 melanoma
[14] = tested on: RPMI-8226 leukemia
[15] = tested on: SF-268 CNS
[16] = tested on: HCT-15 colon
[17] = tested on: HL-60(TB) leukemia

SMILES	TGI [1] [µM]	TGI [2] [µM]	TGI [3] [µM]	TGI [4] [µM]	TGI [5] [µM]	TGI [6] [µM]	TGI [7] [µM]	TGI [8] [µM]	TGI [9] [µM]	TGI [10] [µM]	TGI [11] [µM]	TGI [12] [µM]	TGI [13] [µM]	TGI [14] [µM]	TGI [15] [µM]	TGI [16] [µM]	TGI [17] [µM]
N#CC1=C(N)OC(c2ccc([N+](=O)[O-])cc2)C1(C#N)C#N (stereo unspecified)	44.6	64.9	24.1	21	> 100	33.1	32.7	30.4	32.3	> 50.4	34.8	32.1	31.9	18.7	> 54.3	27.4	7.84
O=C(NC1=NC2C=CC([N+](=O)[O-])=CC2S1)C(=O)Nn1c(=S)[nH]c2ccccc2c1=O (stereo unspecified)	> 100	> 100	> 100	> 100	> 100	> 100	> 100	> 100	> 100	> 100	> 100	> 100	> 100	> 100	> 100	> 100	> 100
OC1CN2CCS[C@H]2C(O)C1O (stereo partly specified)	> 100	> 100	> 100	> 100	> 100	> 100	> 100	> 100	> 100	> 100	> 100	–	> 100	> 100	> 100	> 100	> 100
CC(C)NC(=O)OCCN=C1c2ccccc2CCc2ccccc21	> 100	78.3	36.3	> 100	59	28.5	> 100	66.7	> 100	55.1	46.6	41.5	27.4	43.2	80.7	77.8	45.7
O=[N+]([O-])c1cc(Cl)cc2cc(Cl)cnc12	98	> 100	> 100	> 100	> 100	> 100	> 100	> 100	> 100	> 100	> 100	> 100	> 100	> 100	> 100	> 100	> 100
Cc1cc(C)c2c(=O)n(CN3CCC(O)(c4ccccc4)CC3)sc2n1	50.8	> 100	32.9	37.7	> 100	> 100	83.1	> 100	> 100	48.7	> 100	58.3	> 100	> 100	> 100	> 100	62.3
COc1cc2c(c3c1c(=O)c1ccccc1n3C)C=CC1(CCCCC1)O2	8.46	7.49	> 10	2.98	6.36	> 8.59	> 10	> 10	> 10	6.42	> 10	> 7.22	> 6.15	> 5.04	> 10	> 10	> 10
O=C(CCCl)NNC1=NCCN1	> 100	> 100	> 100	> 100	> 100	> 100	> 100	> 100	> 100	> 100	> 100	> 100	> 100	> 100	> 100	> 100	> 100
CC(=O)OCC1OC(n2c(N)c(C#N)c(-c3ccc(C)cc3)c(C#N)c2=S)C(OC(C)=O)C(OC(C)=O)C1OC(C)=O (stereo unspecified)	29.5	38.7	33	32.7	> 100	> 100	51.9	> 100	28.5	79.3	> 100	19.2	23.2	80	28.5	> 100	> 100
NCCCN1CCN(CC(=O)O)CCN(CCCN)CCN(CC(=O)O)CC1	> 100	> 100	> 100	> 100	> 100	> 100	> 100	> 100	> 100	> 100	> 100	> 100	21.3	> 100	> 100	> 100	> 100
O=c1[nH]nc(Cc2ccc(Cl)cc2)n1/N=C\CC/C=N\n1c(Cc2ccc(Cl)cc2)n[nH]c1=O	23.1	36.5	> 84.7	76.1	> 100	> 83.2	> 100	> 58.4	37	> 100	> 100	40.6	> 100	> 100	37.9	> 100	> 100
O=C(OC(=C(c1ccccc1)c1ccccc1)N1CCCC1=S)C(c1ccccc1)c1ccccc1	> 10	> 10	> 10	> 10	> 10	> 10	> 10	> 10	> 10	> 10	> 10	> 10	> 10	> 10	> 10	> 10	> 10
O=C(Cc1ccc(Cl)c(Cl)c1)N(CCc1ccc(Cl)c(Cl)c1)CCN1CCCC1	4.31	11.2	3.16	3.34	3.66	7.04	3.95	3.26	3.82	3.38	3.09	3.31	3.41	3.62	5.5	3.7	3.35
CN(C1=NCCO1)c1cccc2c1CCCC2	–	> 10	9.3	> 10	> 10	> 10	8.81	5.28	> 10	> 10	8.95	> 10	4.84	> 10	> 10	> 10	> 10
